Results as given in patent publication US20130296311A1, “INHIBITORS OF HCV NS5A” (PRESIDIO PHARMACEUTICALS, INC., priority 2010, published 2013).

Each molecule was assayed on HCV 1b_Huh-Luc/Neo-ET cell line persistently expressing a bicistronic genotype 1b replicon in Huh 7 cells (assay: HCV replicon assay (luciferase readout, 72 h)). Conditions: Hepatitis C virus, Huh-7, 72 h, read-out: Inhibition of HCV genotype 1b.
Type: cell-based, HCV genotype 1b
Experimental: Biological activity of the compounds of the invention was determined using an HCV replicon assay. The HCV 1b_Huh-Luc/Neo-ET cell line persistently expressing a bicistronic genotype 1b replicon in Huh 7 cells was obtained from ReBLikon GMBH. This cell line was used to test compound inhibition using luciferase enzyme activity readout as a measurement of compound inhibition of replicon levels.
On Day 1 (the day after plating), each compound is added in triplicate to the cells. Plates incubated for 72 h prior to running the luciferase assay. Enzyme activity was measured using a Bright-Glo Kit (cat. number E2620) manufactured by Promega Corporation. The following equation was used to generate a percent control value for each compound.
% Control=(Average Compound Value/Average Control)*100
The EC50 value was determined using GraphPad Prism and the following equation:
Y=Bottom+(Top-Bottom)/(1+10̂((LogIC50−X)*HillSlope))
EC50 values of compounds are determined several times in the replicon assay.
Example compounds of the disclosed invention are illustrated in Tables 1-16 attached as appendices. The tables show inhibitory activity of many of the example compounds with respect to HCV 1b. […] The tables further provide mass spectrometry results for the synthesized example compounds.

| SMILES | EC50 |
| --- | --- |
| COC(=O)N[C@H](C(=O)N1CCC[C@H]1c1nc(-c2cnc3cc(C#Cc4ccc(-c5cnc([C@@H]6CCCN6C(=O)[C@@H](NC(=O)OC)C(C)C)[nH]5)cc4)ccc3c2)c[nH]1)C(C)C [Compound 1088] | 1 to 9.9 nM |
| COC(=O)N[C@H](C(=O)N1CCC[C@H]1c1ncc(-c2ccc(C#Cc3ccc4nc([C@@H]5CCCN5C(=O)[C@@H](NC(=O)OC)[C@@H](C)OC)[nH]c4c3)cc2)[nH]1)[C@@H](C)OC [Compound 862] | < 1 nM |
| COC(=O)N[C@H](C(=O)N1CCC[C@H]1c1nc2c([nH]1)-c1ccc(C#Cc3ccc4nc([C@@H]5CCCN5C(=O)[C@@H](NC(=O)OC)C5CCOCC5)[nH]c4c3)cc1CC2)C(C)C [Compound 1102] | < 1 nM |
| COC(=O)N[C@H](C(=O)N1CCC[C@H]1c1ncc(-c2ccc(C#Cc3ccc(-c4cnc([C@@H]5CCCN5C(=O)[C@@H](c5ccccc5)N5CCC(C)(O)CC5)[nH]4)cc3)cc2)[nH]1)C(C)C [Compound 970] | < 1 nM |
| O=C(N[C@@H](C(=O)N1CCC[C@H]1c1ncc(-c2ccc(C#Cc3ccc(-c4cnc([C@@H]5CCCN5C(=O)[C@H](NC(=O)OC5CCOCC5)c5ccccc5)[nH]4)c(F)c3)cc2)[nH]1)c1ccccc1)OC1CCOCC1 [Compound 1014] | < 1 nM |
| COC(=O)N[C@H](C(=O)N1CCC[C@H]1c1ncc(-c2ccc(C#Cc3ccc(-c4cnc([C@@H]5CCCN5C(=O)[C@@H](c5ccccc5)N5CCN(C)CC5)[nH]4)cc3)cc2)[nH]1)C(C)C [Compound 957] | < 1 nM |
| CN1CCC(C(=O)N[C@@H](C(=O)N2CCC[C@H]2c2cc(-c3ccc(C#Cc4ccc(-c5cnc([C@@H]6CCCN6C(=O)[C@H](NC(=O)C6CCN(C)CC6)c6ccccc6)[nH]5)cc4)cc3)n[nH]2)c2ccccc2)CC1 [Compound 223-1] | < 1 nM |
| COC[C@H](NC(=O)OC)C(=O)N1CCC[C@H]1c1ncc(-c2ccc(C#Cc3ccc(-c4cnc([C@@H]5CCCN5C(=O)[C@H](COC)NC(=O)OC)[nH]4)cc3)cc2)[nH]1 [Compound 976] | < 1 nM |
| CC(C)(C)OC(=O)N[C@@H](C(=O)N1CCC[C@H]1c1ncc(-c2ccc(C#Cc3ccc4nc([C@@H]5CCCN5C(=O)[C@H](NC(=O)OC(C)(C)C)c5ccccc5)[nH]c4c3)cc2)[nH]1)c1ccccc1 [Compound 801] | < 1 nM |
| O=C(N[C@@H](C(=O)N1CCC[C@H]1c1cc(-c2ccc(C#Cc3ccc(-c4cnc([C@@H]5CCCN5C(=O)[C@H](NC(=O)[C@@H]5CCCO5)c5ccccc5)[nH]4)cc3)cc2)n[nH]1)c1ccccc1)[C@@H]1CCCO1 [Compound 214] | < 1 nM |
| COC(=O)N[C@H](C(=O)N1CCC[C@H]1c1ncc(-c2ccc(C#Cc3ccc(-c4cnc([C@@H]5CCCN5C(=O)[C@@H](c5ccccc5)N5CCN(CCO)CC5)[nH]4)cc3)cc2)[nH]1)C(C)C [Compound 958] | < 1 nM |
| COC(=O)N[C@H](C(=O)N[C@@H](C)c1ncc(-c2ccc(C#Cc3ccc(-c4cnc([C@@H]5CCCN5C(=O)[C@H](C(C)C)N(C)C)[nH]4)cc3)cc2)[nH]1)C(C)C [Compound 963] | 1 to 9.9 nM |
| CC(C)(C)OC(=O)N[C@@H](C(=O)N1CCC[C@H]1C(=O)Nc1ccc(C#Cc2cnc([C@@H]3CCCN3C(=O)[C@H](NC(=O)OC(C)(C)C)c3ccccc3)[nH]2)cc1)c1ccccc1 [Compound 115] | < 1 nM |
| COC(=O)N[C@@H](C(=O)N1CCC[C@H]1c1ncc(-c2ccc(C#Cc3ccc(-c4cnc([C@@H]5CCCN5C(=O)C5CCN(C)CC5)[nH]4)cc3)cc2)[nH]1)c1ccccc1 [Compound 182] | < 1 nM |
| COC(=O)N[C@@H](C(=O)N1CCC[C@H]1c1ncc(-c2ccc(C#Cc3ccc(-c4cnc([C@@H]5CCCN5C(=O)[C@H](NC(=O)N5CCS(=O)(=O)CC5)c5ccccc5)[nH]4)cc3)cc2)[nH]1)c1ccccc1 [Compound 253] | < 1 nM |
| CN1CCN(C(=O)N[C@@H](C(=O)N2CCC[C@H]2c2cc(-c3ccc(C#Cc4ccc(-c5cnc([C@@H]6CCCN6C(=O)[C@H](NC(=O)N6CCN(C)CC6)c6ccccc6)[nH]5)cc4)cc3)n[nH]2)c2ccccc2)CC1 [Compound 213] | < 1 nM |
| CS(=O)(=O)N[C@@H](C(=O)N1CCC[C@H]1c1ncc(-c2ccc(C#Cc3ccc(-c4cnc([C@@H]5CCCN5C(=O)[C@@H](c5ccccc5)N5CCCCC5)[nH]4)cc3)cc2)[nH]1)c1ccccc1 [Compound 231] | < 1 nM |
| COC(=O)N[C@H](C(=O)N1CCC[C@H]1c1ncc(-c2ccc(C#Cc3ccc(-c4cnc([C@@H]5CCCN5C(=O)[C@H](NC(=O)N5CCN(C)CC5)c5ccccc5)[nH]4)cc3)cc2)[nH]1)C(C)C [Compound 989] | < 1 nM |
| CC(=O)N[C@@H](C(=O)N1CCC[C@H]1c1ncc(-c2ccc(C#Cc3ccc(-c4cnc([C@@H]5CCCN5C(=O)[C@H](NC(C)=O)c5ccccc5)[nH]4)cc3)cc2)[nH]1)c1ccccc1 [Compound 158] | < 1 nM |
| COC(=O)N[C@H](C(=O)N1CCC[C@H]1c1ncc(-c2ccc(C#Cc3ccc(-c4cnc([C@@H]5CCCN5C(=O)[C@@H](c5ccccc5)N(C)C)[nH]4)cc3)cc2)[nH]1)C(C)C [Compound 955] | < 1 nM |
| COC(=O)N[C@H](C(=O)N[C@@H](C)c1ncc(-c2ccc(C#Cc3ccc4nc([C@@H]5CCCN5C(=O)[C@@H](NC(=O)OC)C(C)C)[nH]c4c3)cc2)[nH]1)C(C)C [Compound 869] | < 1 nM |
| COC(=O)N[C@@H](Cc1ccccc1)C(=O)N1CCC[C@H]1c1ncc(-c2ccc(C#Cc3ccc4nc([C@@H]5CCCN5C(=O)[C@H](Cc5ccccc5)NC(=O)OC)[nH]c4c3)cc2)[nH]1 [Compound 1045] | < 1 nM |

Same assay, conditions: Hepatitis C virus, Huh-7, read-out: Inhibition of HCV genotype 1b

| SMILES | EC50 |
| --- | --- |
| COC(=O)N[C@H](C(=O)N1CCN(C(=O)OC)C[C@H]1c1ncc(-c2ccc(C#Cc3ccc(-c4cnc([C@@H]5CCCN5C(=O)[C@@H](NC(=O)OC)C5CCOCC5)[nH]4)cc3)cc2)[nH]1)C(C)C [Compound 1205] | < 1 nM |
| COC[C@H](NC(=O)OC)C(=O)N1CCC[C@H]1c1nc2ccc(C#Cc3ccc(-c4cnc([C@@H]5CCCN5C(=O)[C@@H](NC(=O)OC)C(C)C)[nH]4)cc3)cc2[nH]1 [Compound 1243] | < 1 nM |
| CC[C@H](C)C(NC(=O)OC)C(=O)N1CCC[C@H]1c1nc2ccc(C#Cc3ccc(-c4cnc([C@@H]5CCCN5C(=O)[C@@H](NC(=O)OC)[C@@H](C)OC)[nH]4)cc3)cc2[nH]1 (stereo partly drawn) [Compound 1246] | < 1 nM |
| COC(=O)N[C@H](C(=O)N1CCN(C(=O)OC)C[C@H]1c1ncc(-c2ccc(C#Cc3ccc(-c4cnc([C@@H]5CCCN5C(=O)[C@H](NC(=O)OC5CCOCC5)c5ccccc5)[nH]4)cc3)cc2)[nH]1)C(C)C [Compound 1207] | < 1 nM |
| COC(=O)N[C@H](C(=O)N1CCC[C@H]1c1nc2ccc3cc(C#Cc4ccc5nc([C@@H]6CCCN6C(=O)[C@H](NC(=O)OC)c6ccccc6)[nH]c5c4)ccc3c2[nH]1)C(C)C [Compound 1275] | < 1 nM |
| COC(=O)N[C@H](C(=O)N1CCC[C@H]1c1nc2c([nH]1)-c1ccc(C#Cc3ccc4nc([C@@H]5CCCN5C(=O)[C@@H](NC(=O)OC)C(C)C)[nH]c4c3)cc1CCC2)C(C)C [Compound 1279] | < 1 nM |
| COC[C@H](NC(=O)OC)C(=O)N1CCC[C@H]1c1nc2ccc3cc(C#Cc4ccc5nc([C@@H]6CCCN6C(=O)[C@@H](NC(=O)OC)C(C)C)[nH]c5c4)ccc3c2[nH]1 [Compound 1288] | < 1 nM |
| CC[C@H](C)[C@H](NC(=O)OC)C(=O)N1CCC[C@H]1c1nc(C)c(C#Cc2ccc3cc(-c4cnc([C@@H]5CCCN5C(=O)[C@@H](NC(=O)OC)[C@@H](C)OC)[nH]4)ccc3c2)[nH]1 [Compound 1265] | < 1 nM |
